Source: patent publication US6506901B2, “Substituted 2-(S)-hydroxy-3-(piperidin-4-yl-methylamino)-propyl ethers and substituted 2-aryl-2-(R)-hydroxy-1-(piperidin-4-yl-methyl)-ethylamine β-3 adrenergic receptor agonists” (Wyeth, priority 2000, dated 2003)

Target: T1, human β3 receptors (Homo sapiens, UniProt P13945)
T1 construct: Full length β3 AR clones (402 amino acids) containing the last 6 amino acids of hβ3—AR; expressed in transfected cells; host or cells: CHO cells
Test: cAMP response (SPA) in CHO cells expressing cloned human β3 adrenergic receptor
Assay type: cell-based
Details: for EC50: CHO cells expressing human β3 receptor, cAMP, 30 min incubation, 10^−9 M to 10^−5 M; for IA(β3): maximal response compared to the maximal response of isoproterenol at 10^−5 M
Experimental: Binding to the receptors was measured in Chinese Hamster ovary (CHO) cells that were transfected with adrenergic receptors.
Cloning of Human β3-AR Genomic DNA: cDNA was constructed by ligating four polymerase chain reaction (PCR) products using the following primers: an ATG-NarI fragment, sense primer 5′-[…]3′ and anti-sense primer 5′ […]3′; a NarI-AccI fragment, 5′ […]3′ as sense and 5′ […]3′ as anti-sense primer; an AccIi-StyI fragment, sense primer 5′ […]3′ and anti-sense primer 5′ […]3′ and a StyI-TAG fragment, with sense primer 5′ […]3′ and anti-sense primer 5′ […]3′. The corresponding primer sequences are described in Mantzoros, C. […] The four fragments are ligated into a pUC 18 plasmid (Gibco-BRL) and sequenced.
CHO cells were grown in 24-well tissue culture plates in Dulbecco's Modified Eagle Media with 10% fetal bovine serum, MEM non-essential amino acids, Penicillin-Streptompycin and Geneticin. […] Isoproterenol (10^−5 M) was used as an internal standard for comparison of activity. Cells were incubated at 37° C. on a rocker for 30 min with the β3 cells and 15 min for β1 and β2 cells. Incubation was stopped with the addition of 0.2N HCl and neutralized with 2.5N NaOH. The plates, containing the cells and neutralized media, were stored at −20 degrees celsius until ready to test for cAMP using the SPA test kit (Amersham).
Data Analysis and Results: Data collected from the SPA test procedure were analyzed as per cent of the maximal isoproterenol response at 10^−5 M. Activity curves were plotted using the SAS statistical and graphics software.

T1 sequence (P13945 whole entry): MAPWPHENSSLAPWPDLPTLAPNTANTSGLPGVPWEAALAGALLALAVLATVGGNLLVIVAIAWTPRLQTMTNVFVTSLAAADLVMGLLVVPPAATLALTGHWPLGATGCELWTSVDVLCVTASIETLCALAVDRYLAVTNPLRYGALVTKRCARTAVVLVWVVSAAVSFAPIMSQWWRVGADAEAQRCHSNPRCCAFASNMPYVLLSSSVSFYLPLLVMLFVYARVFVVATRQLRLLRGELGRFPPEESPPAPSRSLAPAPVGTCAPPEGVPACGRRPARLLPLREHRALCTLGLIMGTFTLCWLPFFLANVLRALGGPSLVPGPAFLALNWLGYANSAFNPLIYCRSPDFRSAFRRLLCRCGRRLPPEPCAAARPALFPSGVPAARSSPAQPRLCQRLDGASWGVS

**Q.** Which results are given for CS(=O)(=O)Nc1cc(C(O)CNCC2CCN(S(=O)(=O)c3ccc(-c4noc(CCC(=O)O)n4)cc3)CC2)ccc1O (stereo in doubt) [Example 105, 3-(3-{4-[(4-{[((2S)-2-Hydroxy-2-{4-hydroxy-3-[(methylsulfonyl)amino]-phenyl}ethyl)amino]methyl}-1-piperidinyl)sulfonyl]phenyl}-1,2,4-oxadiazol-5-yl)propanoic Acid]?
**A.** EC50: 34 nM; IA(β3): 0.94

**Q.** Which results are given for CS(=O)(=O)Nc1cc([C@@H](O)CNCC2CCN(c3ccc(C(=O)NC(Cc4ccccc4)C(=O)O)cc3)CC2)ccc1O (stereo in doubt) [Example 109, (2S)-2-{[4-(4-{[((2R)-2-Hydroxy-2-{4-hydroxy-3-[(methylsulfonyl)amino]phenyl}-ethyl)amino]methyl}piperidin-1-yl)benzoyl]amino}-3-phenylpropanoic Acid]?
**A.** EC50: 31 nM; IA(β3): 1.2

**Q.** CS(=O)(=O)Nc1cc([C@@H](O)CNCC2CCN(c3ccc(C(=O)N4CCCC4C(=O)O)cc3)CC2)ccc1O (stereo in doubt) [Example 115, (2S)-1-[4-(4-{[((2R)-2-Hydroxy-2-{4-hydroxy-3-[(methylsulfonyl)amino]phenyl}-ethyl)amino]methyl}piperidin-1-yl)benzoyl]pyrrolidine-2-carboxylic Acid] was tested. Which EC50 did it give?
**A.** 66 nM

**Q.** What about the “IA(β3)” value of the same compound?
**A.** 1

**Q.** O=c1[nH]c2ccc(OCC(O)CNCC3CCN(S(=O)(=O)c4cccc(Br)c4)CC3)cc2[nH]1 (stereo in doubt) [Example 178] was tested. Which EC50 did it give?
**A.** 210 nM

**Q.** And the “IA(β3)” value?
**A.** 0.84

**Q.** Which results are given for O=C1c2ccccc2-c2c(OC[C@@H](O)CNCC3CCN(CCC(F)(F)F)CC3)cccc21 [Example 13, 4-(2-Hydroxy-3-{[1-(3,3,3-trifluoro-propyl)-piperidin-4-ylmethyl]-amino}-propoxy)-fluoren-9-one]?
**A.** EC50: 596 nM; IA(β3): 0.62

**Q.** How did the EC50 turn out when OC1c2ccccc2-c2c(OC[C@@H](O)CNCC3CCN(CCC(F)(F)F)CC3)cccc21 (stereo partly drawn) [Example 14, 4-((2S)-2-Hydroxy-3-{[1-(3,3,3-trifluoro-propyl)-piperidin-4-ylmethyl]-amino}-propoxy)-9H-fluoren-9-ol] was run?
**A.** 219 nM

**Q.** And the “IA(β3)” value?
**A.** 0.75

**Q.** What does the source list for Oc1ccc2[nH]c3ccccc3c2c1OC[C@@H](O)CNCC1CCN(CCC(F)(F)F)CC1 [Example 15, 4-((2S)-2-Hydroxy-3-{[1-(3,3,3-trifluoro-propyl)-piperidin-4-ylmethyl]-amino}-propoxy)-9H-carbazol-3-ol]?
**A.** EC50: 12500 nM; IA(β3): 0.52

**Q.** O[C@@H](CNCC1CCN(CCC(F)(F)F)CC1)COc1c(Cl)ccc2[nH]c3ccccc3c12 [Example 19, (2S)-1-(3-Chloro-9H-carbazol-4-yloxy)-3-{[1-(3,3,3-trifluoro-propyl)-piperidin-4-ylmethyl]-amino}-propan-2-ol] was tested. Which EC50 did it give?
**A.** 1240 nM

**Q.** And the “IA(β3)” value?
**A.** 0.82

**Q.** Which EC50 does the source give for O=c1[nH]c2cccc(OC[C@@H](O)CNCC3CCN(CCC(F)(F)F)CC3)c2[nH]1 [Example 22, 4-((2S)-2-Hydroxy-3-{[1-(3,3,3-trifluoro-propyl)-piperidin-4-ylmethyl]-amino}-propoxy)-1,3-dihydro-benzoimidazol-2-one] here?
**A.** 1210 nM

**Q.** What about the “IA(β3)” value of the same compound?
**A.** 0.53

**Q.** Cc1cc2c(OC[C@@H](O)CNCC3CCN(CCC(F)(F)F)CC3)cccc2[nH]1 [Example 23, (2S)-1-(2-Methyl-1H-indol-4-yloxy)-3-{[1-(3,3,3-trifluoro-propyl)-piperidin-4-ylmethyl]-amino}-propan-2-ol] was tested. Which EC50 did it give?
**A.** 1090 nM

**Q.** And the “IA(β3)” value?
**A.** 0.66

**Q.** Which results are given for O[C@@H](CNCC1CCN(CCCC(F)(F)F)CC1)COc1cccc2[nH]c3ccccc3c12 [Example 24, (2S)-1-(9H-Carbazol-4-yloxy)-3-{[1-(4,4,4-trifluoro-butyl)-piperidin-4-ylmethyl]-amino}-propan-2-ol]?
**A.** EC50: 943 nM; IA(β3): 0.98

**Q.** CCCCCCCCN1CCC(CNC[C@H](O)COc2cccc3[nH]c4ccccc4c23)CC1 [Example 27] was tested. Which EC50 did it give?
**A.** 1030 nM

**Q.** And the “IA(β3)” value?
**A.** 0.51

**Q.** Which results are given for CC(C)S(=O)(=O)N1CCC(CNC[C@H](O)COc2cccc3[nH]c4ccccc4c23)CC1 [Example 32, (2S)-1-(9H-Carbazol-4-yloxy)-3-{[1-(ropane-2-sulfonyl)-piperidin-4-ylmethyl]-amino}-propan-2-ol]?
**A.** EC50: 123 nM; IA(β3): 0.8

**Q.** COc1ccc(S(=O)(=O)N2CCC(CNC[C@H](O)COc3cccc4[nH]c5ccccc5c34)CC2)cc1 [Example 33, (2S)-1-(9H-Carbazol-4-yloxy)-3-{[1-(4-methoxy-benzenesulfonyl)-piperidin-4-ylmethyl]-amino}-propan-2-ol] was tested. Which EC50 did it give?
**A.** 141 nM

**Q.** And the “IA(β3)” value?
**A.** 0.68

**Q.** What does the source list for COc1ccc(S(=O)(=O)N2CCC(CNC[C@H](O)COc3c(Br)ccc4[nH]c5ccccc5c34)CC2)cc1 [Example 34, (2S)-1-(3-Bromo-9H-carbazol-4-yloxy)-3-{[1-(4-methoxy-benzenesulfonyl)-piperidin-4-ylmethyl]-amino}-propan-2-ol]?
**A.** EC50: 7000 nM; IA(β3): 0.36

**Q.** What does the source list for COc1ccc(S(=O)(=O)N2CCC(CNC[C@H](O)COc3ccc(O)cc3)CC2)cc1 [Example 37, 4-((2S)-2-Hydroxy-3-{[1-(4-methoxy-benzenesulfonyl)-piperidin-4-ylmethyl]-amino}-propoxy)-phenol]?
**A.** EC50: 376 nM; IA(β3): 1.04

**Q.** Which results are given for COc1ccc(S(=O)(=O)N2CCC(CNC[C@H](O)COc3cccc4c3-c3ccccc3C4=O)CC2)cc1 [Example 38, 4-((2S)-2-Hydroxy-3-{[1-(4-methoxy-benzenesulfonyl)-piperidin-4-ylmethyl]-amino}-propoxy)-fluoren-9-one]?
**A.** EC50: 365 nM; IA(β3): 0.36

**Q.** Which results are given for COc1ccc(S(=O)(=O)N2CCC(CNC[C@H](O)COc3cccc4[nH]c(=O)[nH]c34)CC2)cc1 [Example 39, 4-((2S)-2-Hydroxy-3-{[1-(4-methoxy-benzenesulfonyl)-piperidin-4-ylmethyl]-amino}-propoxy)-1,3-dihydro-benzoimidazol-2-one]?
**A.** EC50: 30 nM; IA(β3): 0.81

**Q.** COc1ccc(S(=O)(=O)N2CCC(CNC[C@H](O)COc3cccc4[nH]c(C)cc34)CC2)cc1 [Example 40, 4-((2S)-2-Hydroxy-3-{[1-(4-methoxy-benzenesulfonyl)-piperidin-4-ylmethyl]-amino}-propoxy)-2-methyl-1H-indole] was tested. Which EC50 did it give?
**A.** 490 nM

**Q.** What about the “IA(β3)” value of the same compound?
**A.** 0.23

**Q.** Which results are given for COc1ccc(S(=O)(=O)N2CCC(CNC[C@H](O)COc3cccc4c3CC(=O)N4)CC2)cc1 [Example 41, 4-((2S)-3-{[1-(4-Methoxy-benzenesulfonyl)-piperidin-4-ylmethyl]-amino}-2-hydroxy-propoxy)-1,3-dihydro-indol-2-one]?
**A.** EC50: 95 nM; IA(β3): 0.65

**Q.** How did the EC50 turn out when COc1ccc(S(=O)(=O)N2CCC(CNC[C@H](O)COc3cccc4[nH]c(=O)[nH]c34)CC2)cc1OC [Example 42, 4-((2S)-2-Hydroxy-3-{[1-(3,4-dimethoxy-benzenesulfonyl)-piperidin-4-ylmethyl]-amino}-propoxy)-1,3-dihydro-benzoimidazol-2-one] was run?
**A.** 150 nM

**Q.** And the “IA(β3)” value?
**A.** 0.69

**Q.** What does the source list for COc1ccc(S(=O)(=O)N2CCC(CNC[C@H](O)COc3ccc(O)cc3)CC2)cc1OC [Example 43, 4-((2S)-2-Hydroxy-3-{[1-(3,4-dimethoxy-benzenesulfonyl)-piperidin-4-ylmethyl]-amino}-propoxy)-phenol]?
**A.** EC50: 880 nM; IA(β3): 0.68

**Q.** Which results are given for COc1ccc(S(=O)(=O)N2CCC(CNC[C@H](O)COc3cccc4c3CC(=O)N4)CC2)cc1OC [Example 44, 4-((2S)-3-{[1-(3,4-Dimethoxy-benzenesulfonyl)-piperidin-4-ylmethyl]-amino}-2-hydroxy-propoxy)-1,3-dihydro-indol-2-one]?
**A.** EC50: 421 nM; IA(β3): 0.46

**Q.** How did the EC50 turn out when O=[N+]([O-])c1ccc(S(=O)(=O)N2CCC(CNC[C@H](O)COc3ccc(O)cc3)CC2)cc1 [Example 45, 4-((2S)-2-Hydroxy-3-{[1-(4-nitro-benzenesulfonyl)-piperidin-4-ylmethyl]-amino}-propoxy)-phenol] was run?
**A.** 610 nM

**Q.** What about the “IA(β3)” value of the same compound?
**A.** 1

**Q.** For O=C1Cc2c(cccc2OC[C@@H](O)CNCC2CCN(S(=O)(=O)c3ccc(OC(F)(F)F)cc3)CC2)N1 [Example 46, 4-((2S)-2-Hydroxy-3-{[1-(4-trifluoromethoxy-benzenesulfonyl)-piperidin-4-ylmethyl]-amino}-propoxy)-1,3-dihydro-indol-2-one], which EC50 is on record?
**A.** 222 nM

**Q.** And the “IA(β3)” value?
**A.** 0.81

**Q.** Which EC50 does the source give for O=S(=O)(c1ccc(OC(F)(F)F)cc1)N1CCC(CNC[C@H](O)COc2ccc(O)cc2)CC1 [Example 47, 4-((2S)-2-Hydroxy-3-{[1-(4-trifluoromethoxy-benzenesulfonyl)-piperidin-4-ylmethyl]-amino}-propoxy)-phenol] here?
**A.** 250 nM

**Q.** What about the “IA(β3)” value of the same compound?
**A.** 0.7

**Q.** How did the EC50 turn out when Cn1cnc(S(=O)(=O)N2CCC(CNC[C@H](O)COc3ccc(O)cc3)CC2)c1 [Example 49, 4-((2S)-2-Hydroxy-3-{[1-(1-methyl-1H-imidazole-4-sulfonyl)-piperidin-4-ylmethyl]-amino}-propoxy)-phenol] was run?
**A.** 2360 nM

**Q.** What about the “IA(β3)” value of the same compound?
**A.** 0.4
